In PubChem BioAssay AID248 (DTP/NCI, 2004) one finds T/C data, which are given here for six molecules.

This assay deals with L1210 leukemia ip in BDF1 mice, survival T/C. The experiment in a line: NCI In Vivo Anticancer Drug Screen. Data for tumor model L1210 Leukemia (intraperitoneal) in B6D2F1 (BDF1) mice. Particulars: higher = longer survival. A digest of the protocol:
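Survival endpoint. Drug-treated group vs vehicle group, expressed as T divided by C. Tumor passaged by transplantation.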

[1] abbreviates: endpoint: mean survival time, dose: 100.0 mg/kg/injection, schedule: Q01DX001 (ip), vehicle: saline.
The mark [2] stands for this setting: endpoint: mean survival time, dose: 50.0 mg/kg/injection, schedule: Q01DX001 (ip), vehicle: carboxymethylcellulose (CMC).
Where [3] appears, read: endpoint: mean survival time, dose: 100.0 mg/kg/injection, schedule: Q01DX001 (ip), vehicle: carboxymethylcellulose (CMC).
[4] abbreviates: endpoint: mean survival time, dose: 200.0 mg/kg/injection, schedule: Q01DX001 (ip), vehicle: carboxymethylcellulose (CMC).

“And” between values parts separate entries of the source, which are not always exact repeats. Equal values may be shown once. Toxic doses and inconclusive results are not listed.

As for `Cn1cnc([N+](=O)[O-])c1Sc1nc(N)nc2nc[nH]c12`, the T/C runs as follows: (endpoint: mean survival time, dose: 0.16 mg/kg/injection, schedule: Q#A X030 (oral), vehicle: saline) 110 % of control; (endpoint: mean survival time, dose: 0.31 mg/kg/injection, schedule: Q#A X030 (oral), vehicle: saline) 106 % of control; (endpoint: mean survival time, dose: 0.62 mg/kg/injection, schedule: Q#A X030 (oral), vehicle: saline) 108 % of control; (endpoint: mean survival time, dose: 0.9 mg/kg/injection, schedule: Q03DX005 (oral), vehicle: saline) 101 % of control; (endpoint: mean survival time, dose: 1.2 mg/kg/injection, schedule: Q01DX006 (iv), vehicle: saline) 105 % of control; (endpoint: mean survival time, dose: 1.2 mg/kg/injection, schedule: Q01DX Z (im), vehicle: saline) 105 % of control. The T/C runs as follows: (endpoint: mean survival time, dose: 1.2 mg/kg/injection, schedule: Q01DX Z (ip), vehicle: saline) 168 % of control; (endpoint: mean survival time, dose: 1.2 mg/kg/injection, schedule: Q01DX Z (sc), vehicle: saline) 166 % of control; (endpoint: mean survival time, dose: 1.25 mg/kg/injection, schedule: Q01DX010 (ip), vehicle: saline) 112 % of control and 120 % of control; (endpoint: mean survival time, dose: 1.25 mg/kg/injection, schedule: Q#A X030 (oral), vehicle: saline) 113 % of control; (endpoint: mean survival time, dose: 1.6 mg/kg/injection, schedule: Q01DX001 (oral), vehicle: saline) 110 % of control; (endpoint: mean survival time, dose: 1.9 mg/kg/injection, schedule: Q03DX005 (oral), vehicle: saline) 106 % of control. In addition, the T/C (endpoint: mean survival time, dose: 2.1 mg/kg/injection, schedule: Q07DX003 (oral), vehicle: saline) is 102 % of control; the T/C (endpoint: mean survival time, dose: 2.5 mg/kg/injection, schedule: Q01DX006 (iv), vehicle: saline) was 109 % of control; the T/C (endpoint: mean survival time, dose: 2.5 mg/kg/injection, schedule: Q01DX009 (ip), vehicle: saline) is 151 % of control and 159 % of control; the T/C (endpoint: mean survival time, dose: 2.5 mg/kg/injection, schedule: Q01DX010 (ip), vehicle: saline) was 154 % of control and 155 % of control; the T/C (endpoint: mean survival time, dose: 2.5 mg/kg/injection, schedule: Q01DX Z (im), vehicle: saline) was 100 % of control; the T/C (endpoint: mean survival time, dose: 2.5 mg/kg/injection, schedule: Q01DX Z (ip), vehicle: saline) was 150 % of control. Also, the T/C runs as follows: (endpoint: mean survival time, dose: 3.13 mg/kg/injection, schedule: Q01DX001 (oral), vehicle: saline) 104 % of control and 108 % of control; (endpoint: mean survival time, dose: 3.8 mg/kg/injection, schedule: Q03DX005 (oral), vehicle: saline) 104 % of control; (endpoint: mean survival time, dose: 4.3 mg/kg/injection, schedule: Q07DX003 (oral), vehicle: saline) 106 % of control; (endpoint: mean survival time, dose: 5.0 mg/kg/injection, schedule: Q01DX009 (ip), vehicle: saline) 156 % of control; (endpoint: mean survival time, dose: 5.0 mg/kg/injection, schedule: Q01DX010 (ip), vehicle: saline) 161 % of control and 163 % of control; (endpoint: mean survival time, dose: 5.0 mg/kg/injection, schedule: Q01DX Z (ip), vehicle: saline) 166 % of control. Further, the T/C runs as follows: (endpoint: mean survival time, dose: 5.0 mg/kg/injection, schedule: Q01DX Z (oral), vehicle: saline) 116 % of control; (endpoint: mean survival time, dose: 5.0 mg/kg/injection, schedule: Q01DX Z (sc), vehicle: saline) 209 % of control; (endpoint: mean survival time, dose: 6.0 mg/kg/injection, schedule: Q01DX001 (ip), vehicle: saline) 109 % of control and 113 % of control; (endpoint: mean survival time, dose: 6.25 mg/kg/injection, schedule: Q01DX001 (oral), vehicle: saline) 102 % of control; (endpoint: mean survival time, dose: 7.5 mg/kg/injection, schedule: Q03DX005 (oral), vehicle: saline) 112 % of control; (endpoint: mean survival time, dose: 8.7 mg/kg/injection, schedule: Q07DX003 (oral), vehicle: saline) 113 % of control. For the same molecule, the T/C was 152 % of control (endpoint: mean survival time, dose: 10.0 mg/kg/injection, schedule: Q01DX010 (ip), vehicle: saline); 123 % of control (endpoint: mean survival time, dose: 10.0 mg/kg/injection, schedule: Q01DX Z (oral), vehicle: saline); 110 % of control (endpoint: mean survival time, dose: 12.5 mg/kg/injection, schedule: Q01DX001 (oral), vehicle: saline); 122 % of control (endpoint: mean survival time, dose: 17.5 mg/kg/injection, schedule: Q07DX003 (oral), vehicle: saline); 153 % of control (endpoint: mean survival time, dose: 20.0 mg/kg/injection, schedule: Q01DX006 (iv), vehicle: saline); 114 % of control and 120 % of control (endpoint: mean survival time, dose: 20.0 mg/kg/injection, schedule: Q01DX009 (ip), vehicle: saline). Further, the T/C is 166 % of control (endpoint: mean survival time, dose: 22.0 mg/kg/injection, schedule: Q01DX001 (ip), vehicle: carboxymethylcellulose (CMC)); 116 % of control and 239 % of control (endpoint: mean survival time, dose: 25.0 mg/kg/injection, schedule: Q01DX001 (ip), vehicle: saline); 174 % of control (endpoint: mean survival time, dose: 35.0 mg/kg/injection, schedule: Q01DX001 (ip), vehicle: carboxymethylcellulose (CMC)); 174 % of control (endpoint: mean survival time, dose: 40.0 mg/kg/injection, schedule: Q01DX Z (oral), vehicle: saline); 180 % of control (endpoint: mean survival time, dose: 52.0 mg/kg/injection, schedule: Q01DX001 (ip), vehicle: carboxymethylcellulose (CMC)); 196 % of control (endpoint: mean survival time, dose: 78.0 mg/kg/injection, schedule: Q01DX001 (ip), vehicle: carboxymethylcellulose (CMC)). In addition, the T/C (endpoint: mean survival time, dose: 80.0 mg/kg/injection, schedule: Q01DX Z (oral), vehicle: saline) is 163 % of control; the T/C under setting [1] was 200 % of control and 254 % of control; the T/C (endpoint: mean survival time, dose: 160.0 mg/kg/injection, schedule: Q01DX Z (im), vehicle: saline) is 96 % of control; the T/C (endpoint: mean survival time, dose: 160.0 mg/kg/injection, schedule: Q01DX Z (oral), vehicle: saline) is 111 % of control; the T/C (endpoint: mean survival time, dose: 320.0 mg/kg/injection, schedule: Q01DX Z (oral), vehicle: saline) was 91 % of control; the T/C (endpoint: mean survival time, dose: 640.0 mg/kg/injection, schedule: Q01DX Z (oral), vehicle: saline) was 86 % of control. Further, the T/C runs as follows: (endpoint: mean survival time, dose: 960.0 mg/kg/injection, schedule: Q03DX005 (oral), vehicle: saline) 106 % of control; (endpoint: mean survival time, dose: 1920.0 mg/kg/injection, schedule: Q03DX005 (oral), vehicle: saline) 100 % of control; (endpoint: median survival time, dose: 2.5 mg/kg/injection, schedule: Q01DX009 (ip), vehicle: saline) 150 % of control; (endpoint: median survival time, dose: 10.0 mg/kg/injection, schedule: Q01DX009 (ip), vehicle: saline) 115 % of control; (endpoint: median survival time, dose: 20.0 mg/kg/injection, schedule: Q01DX009 (ip), vehicle: saline) 100 % of control and 118 % of control.

Take `O=C(Nc1cc(Cl)cc(Cl)c1)C(Cl)Cl`: the T/C is, setting by setting: under setting [2], 117 % of control; under setting [3], 109 % of control; under setting [4], 105 % of control; (endpoint: mean survival time, dose: 400.0 mg/kg/injection, schedule: Q01DX001 (ip), vehicle: carboxymethylcellulose (CMC)) 109 % of control.

With `S=C1NCCS1`, the T/C by setting is: under setting [2], 113 % of control; (endpoint: mean survival time, dose: 50.0 mg/kg/injection, schedule: Q01DX009 (ip), vehicle: Klucel (hydroxypropylcellulose) (HPC)) 110 % of control; under setting [3], 102 % of control; (endpoint: mean survival time, dose: 100.0 mg/kg/injection, schedule: Q01DX009 (ip), vehicle: Klucel (hydroxypropylcellulose) (HPC)) 108 % of control; (endpoint: mean survival time, dose: 100.0 mg/kg/injection, schedule: Q04DX003 (ip), vehicle: Klucel (hydroxypropylcellulose) (HPC)) 108 % of control; under setting [4], 94 % of control. Also, the T/C (endpoint: mean survival time, dose: 200.0 mg/kg/injection, schedule: Q01DX009 (ip), vehicle: Klucel (hydroxypropylcellulose) (HPC)) was 110 % of control and the T/C (endpoint: mean survival time, dose: 200.0 mg/kg/injection, schedule: Q04DX003 (ip), vehicle: Klucel (hydroxypropylcellulose) (HPC)) was 113 % of control.

Regarding `N#CCCC(=O)c1ccncc1`, the T/C is, setting by setting: (endpoint: mean survival time, dose: 100.0 mg/kg/injection, schedule: Q04DX003 (ip), vehicle: saline with Tween-80) 96 % of control; (endpoint: mean survival time, dose: 200.0 mg/kg/injection, schedule: Q04DX003 (ip), vehicle: saline with Tween-80) 107 % of control; (endpoint: mean survival time, dose: 400.0 mg/kg/injection, schedule: Q04DX003 (ip), vehicle: saline with Tween-80) 104 % of control.

As to `Nc1ccc(Cc2nc3ccccc3[nH]2)cc1`, the T/C is, setting by setting: under setting [1], 102 % of control; (endpoint: mean survival time, dose: 200.0 mg/kg/injection, schedule: Q01DX001 (ip), vehicle: saline) 96 % of control; (endpoint: mean survival time, dose: 400.0 mg/kg/injection, schedule: Q01DX001 (ip), vehicle: saline) 98 % of control.

Turning to `C=C1CC(CCCC2CC(=C)C(=O)O2)OC1=O` (stereo not drawn), the T/C runs as follows: (endpoint: mean survival time, dose: 100.0 mg/kg/injection, schedule: Q04DX002 (ip), vehicle: saline) 101 % of control; (endpoint: mean survival time, dose: 200.0 mg/kg/injection, schedule: Q04DX002 (ip), vehicle: saline) 111 % of control.
